Results as given in ChEMBL document CHEMBL3045770, “Design and synthesis of some thieno[2,3-c]pyridazine derivatives of expected anticancer activity” (2013).

Experiments:
Type in all cases: functional
[1] = system: SK-OV-3; test: Cytotoxicity against Homo sapiens (human) SKOV3 assessed as cell growth at 10 uM after 48 hr by SRB assay relative to control; details: SK-OV-3, 48 h, read-out: Activity
[2] = system: MDA-MB-468; test: Cytotoxicity against Homo sapiens (human) MDA-MB-468 assessed as cell growth at 10 uM after 48 hr by SRB assay relative to control; details: MDA-MB-468, 48 h, read-out: Activity
[3] = system: NCI-H23; test: Cytotoxicity against Homo sapiens (human) NCI-H23 assessed as cell growth at 10 uM after 48 hr by SRB assay relative to control; details: NCI-H23, 48 h, read-out: Activity
[4] = Cytotoxicity against Homo sapiens (human) NCI-ADR-RES assessed as cell growth at 10 uM after 48 hr by SRB assay relative to control; details: read-out: Activity
[5] = system: MCF7; test: Cytotoxicity against Homo sapiens (human) MCF7 assessed as cell growth at 10 uM after 48 hr by SRB assay relative to control; details: MCF7, 48 h, read-out: Activity
[6] = system: UACC-257; test: Cytotoxicity against Homo sapiens (human) UACC257 assessed as cell growth at 10 uM after 48 hr by SRB assay relative to control; details: UACC-257, 48 h, read-out: Activity
[7] = system: HCT-116; test: Cytotoxicity against Homo sapiens (human) HCT116 assessed as cell growth at 10 uM after 48 hr by SRB assay relative to control; details: HCT-116, 48 h, read-out: Activity
[8] = system: MDA-MB-435; test: Cytotoxicity against Homo sapiens (human) MDA-MB-435 assessed as cell growth at 10 uM after 48 hr by SRB assay relative to control; details: MDA-MB-435, 48 h, read-out: Activity
[9] = system: SNB-75; test: Cytotoxicity against Homo sapiens (human) SNB75 assessed as cell growth at 10 uM after 48 hr by SRB assay relative to control; details: SNB-75, 48 h, read-out: Activity
[10] = system: HOP-62; test: Cytotoxicity against Homo sapiens (human) HOP62 assessed as cell growth at 10 uM after 48 hr by SRB assay relative to control; details: HOP-62, 48 h, read-out: Activity
[11] = system: NCI-H522; test: Cytotoxicity against Homo sapiens (human) NCI-H522 assessed as cell growth at 10 uM after 48 hr by SRB assay relative to control; details: NCI-H522, 48 h, read-out: Activity
[12] = system: SW-620; test: Cytotoxicity against Homo sapiens (human) SW620 assessed as cell growth at 10 uM after 48 hr by SRB assay relative to control; details: SW-620, 48 h, read-out: Activity
[13] = system: HT-29; test: Cytotoxicity against Homo sapiens (human) HT-29 assessed as cell growth at 10 uM after 48 hr by SRB assay relative to control; details: HT-29, 48 h, read-out: Activity
[14] = system: OVCAR-3; test: Cytotoxicity against Homo sapiens (human) OVCAR3 assessed as cell growth at 10 uM after 48 hr by SRB assay relative to control; details: OVCAR-3, 48 h, read-out: Activity
[15] = system: NCI-H460; test: Cytotoxicity against Homo sapiens (human) NCI-H460 assessed as cell growth at 10 uM after 48 hr by SRB assay relative to control; details: NCI-H460, 48 h, read-out: Activity
[16] = system: SF-268; test: Cytotoxicity against Homo sapiens (human) SF268 assessed as cell growth at 10 uM after 48 hr by SRB assay relative to control; details: SF-268, 48 h, read-out: Activity
[17] = system: SNB-19; test: Cytotoxicity against Homo sapiens (human) SNB19 assessed as cell growth at 10 uM after 48 hr by SRB assay relative to control; details: SNB-19, 48 h, read-out: Activity
[18] = system: COLO 205; test: Cytotoxicity against Homo sapiens (human) COLO205 assessed as cell growth at 10 uM after 48 hr by SRB assay relative to control; details: COLO 205, 48 h, read-out: Activity
[19] = system: CAKI-1; test: Cytotoxicity against Homo sapiens (human) Caki1 assessed as cell growth at 10 uM after 48 hr by SRB assay relative to control; details: CAKI-1, 48 h, read-out: Activity
[20] = system: MDA-MB-231; test: Cytotoxicity against Homo sapiens (human) MDA-MB-231 assessed as cell growth at 10 uM after 48 hr by SRB assay relative to control; details: MDA-MB-231, 48 h, read-out: Activity
[21] = system: SK-MEL-5; test: Cytotoxicity against Homo sapiens (human) SK-MEL-5 assessed as cell growth at 10 uM after 48 hr by SRB assay relative to control; details: SK-MEL-5, 48 h, read-out: Activity
[22] = system: LOX IMVI; test: Cytotoxicity against Homo sapiens (human) LOXIMVI assessed as cell growth at 10 uM after 48 hr by SRB assay relative to control; details: read-out: Activity
[23] = system: SK-MEL-28; test: Cytotoxicity against Homo sapiens (human) SK-MEL-28 assessed as cell growth at 10 uM after 48 hr by SRB assay relative to control; details: SK-MEL-28, 48 h, read-out: Activity
[24] = system: HL-60(TB); test: Cytotoxicity against Homo sapiens (human) HL-60(TB) assessed as cell growth at 10 uM after 48 hr by SRB assay relative to control; details: HL-60, 48 h, read-out: Activity
[25] = system: RXF 393; test: Cytotoxicity against Homo sapiens (human) RXF393 assessed as cell growth at 10 uM after 48 hr by SRB assay relative to control; details: RXF 393, 48 h, read-out: Activity
[26] = system: M14; test: Cytotoxicity against Homo sapiens (human) M14 assessed as cell growth at 10 uM after 48 hr by SRB assay relative to control; details: M14, 48 h, read-out: Activity
[27] = system: OVCAR-8; test: Cytotoxicity against Homo sapiens (human) OVCAR8 assessed as cell growth at 10 uM after 48 hr by SRB assay relative to control; details: OVCAR-8, 48 h, read-out: Activity
[28] = system: DU-145; test: Cytotoxicity against Homo sapiens (human) DU145 assessed as cell growth at 10 uM after 48 hr by SRB assay relative to control; details: DU-145, 48 h, read-out: Activity
[29] = system: EKVX; test: Cytotoxicity against Homo sapiens (human) EKVX assessed as cell growth at 10 uM after 48 hr by SRB assay relative to control; details: read-out: Activity
[30] = system: HCT-15; test: Cytotoxicity against Homo sapiens (human) HCT15 assessed as cell growth at 10 uM after 48 hr by SRB assay relative to control; details: HCT-15, 48 h, read-out: Activity
[31] = system: SK-MEL-2; test: Cytotoxicity against Homo sapiens (human) SK-MEL-2 assessed as cell growth at 10 uM after 48 hr by SRB assay relative to control; details: SK-MEL-2, 48 h, read-out: Activity
[32] = system: SN12C; test: Cytotoxicity against Homo sapiens (human) SN12C assessed as cell growth at 10 uM after 48 hr by SRB assay relative to control; details: read-out: Activity

| Structure (SMILES) | growth at 10 µM [2] | growth at 10 µM [6] | growth at 10 µM [7] | growth at 10 µM [8] | growth at 10 µM [9] | growth at 10 µM [10] | growth at 10 µM [11] | growth at 10 µM [12] | growth at 10 µM [13] | growth at 10 µM [14] | growth at 10 µM [15] | growth at 10 µM [16] | growth at 10 µM [17] | growth at 10 µM [18] | growth at 10 µM [20] | growth at 10 µM [21] | growth at 10 µM [23] | growth at 10 µM [24] | growth at 10 µM [25] | growth at 10 µM [26] | also measured |
| --- | --- | --- | --- | --- | --- | --- | --- | --- | --- | --- | --- | --- | --- | --- | --- | --- | --- | --- | --- | --- | --- |
| Oc1c(-c2nnc(-c3ccc(Cl)cc3)o2)sc2nnc(-c3ccccc3)c(-c3ccccc3)c12 | 44.6% | 85% | 19.3% | 58.6% | 62.8% | 51.2% | 75.1% | 35.6% | 91.2% | 26% | 27.4% | 55.2% | 43.9% | 67.4% | 77.9% | 53.7% | 71.8% | 52.5% | 72.3% | 55.3% | growth at 10 µM [1]: 61.9%; growth at 10 µM [3]: 56.5%; growth at 10 µM [4]: 15.5%; growth at 10 µM [5]: 33.5%; growth at 10 µM [19]: 24.5%; growth at 10 µM [22]: 28.1%; growth at 10 µM [27]: 46.1%; growth at 10 µM [28]: 71.9%; growth at 10 µM [29]: 58.5%; growth at 10 µM [30]: 32%; growth at 10 µM [31]: 87.1% |
| CCOC(=O)c1c(Nc2ccc(S(N)(=O)=O)cc2)nnc(-c2ccccc2)c1-c1ccccc1 | 97.9% | 101% | 93.3% | 107% | 84.6% | 108% | 111% | 105% | 118% | 118% | 108% | 105% | 108% | 113% | 108% | 94.6% | 107% | 71.2% | 109% | 104% | growth at 10 µM [1]: 108%; growth at 10 µM [32]: 104%; growth at 10 µM [3]: 115%; growth at 10 µM [4]: 96.8%; growth at 10 µM [19]: 83.8%; growth at 10 µM [22]: 99.4%; growth at 10 µM [27]: 99.8%; growth at 10 µM [28]: 120%; growth at 10 µM [29]: 105%; growth at 10 µM [30]: 93.4%; growth at 10 µM [31]: 123% |
| CSc1nnc(-c2sc3nnc(-c4ccccc4)c(-c4ccccc4)c3c2O)o1 | 78.9% | 91.6% | 60.9% | 88.4% | 78.4% | 71.1% | 96.6% | 92.5% | 107% | 86.8% | 56.7% | 80.6% | 66.4% | 110% | 90.4% | 83.5% | 85.5% | 107% | 82.6% | 73% | growth at 10 µM [32]: 75.7%; growth at 10 µM [4]: 85.5%; growth at 10 µM [5]: 83.5%; growth at 10 µM [19]: 43.5%; growth at 10 µM [27]: 85.8%; growth at 10 µM [28]: 84.7%; growth at 10 µM [29]: 77.5%; growth at 10 µM [30]: 54.6%; growth at 10 µM [31]: 102% |
| CCOC(=O)c1c(Nc2ccc(S(=O)(=O)Nc3nccs3)cc2)nnc(-c2ccccc2)c1-c1ccccc1 | 110% | 104% | 98.6% | 119% | 104% | 117% | 103% | 131% | 116% | 120% | 111% | 112% | 108% | 114% | 115% | 97.6% | 113% | 104% | 120% | 104% | growth at 10 µM [1]: 106%; growth at 10 µM [32]: 94.8%; growth at 10 µM [19]: 107%; growth at 10 µM [27]: 102%; growth at 10 µM [28]: 114%; growth at 10 µM [29]: 102%; growth at 10 µM [30]: 106%; growth at 10 µM [31]: 118% |
| Oc1c(-c2n[nH]c(=S)o2)sc2nnc(-c3ccccc3)c(-c3ccccc3)c12 | 108% | 97% | 103% | 93.6% | 72.6% | 99.7% | 102% | 124% | 114% | 115% | 116% | 102% | 103% | 106% | 109% | 94.7% | 102% | 101% | 109% | 99.5% | growth at 10 µM [1]: 96.4%; growth at 10 µM [32]: 94%; growth at 10 µM [5]: 92%; growth at 10 µM [19]: 93.3%; growth at 10 µM [27]: 106%; growth at 10 µM [28]: 112%; growth at 10 µM [29]: 102%; growth at 10 µM [30]: 103%; growth at 10 µM [31]: 106% |
| CC(=O)Oc1c(C2=NN(C(C)=O)C(c3ccc(F)cc3)O2)sc2nnc(-c3ccccc3)c(-c3ccccc3)c12 (centres undefined) | 84% | 113% | 80.5% | 79.6% | 78.1% | 121% | 80.4% | 97.4% | 102% | 96.3% | 101% | 89.6% | 82.6% | 117% | 85.9% | 88.2% | 82.1% | 83.8% | 88% | 102% | growth at 10 µM [1]: 97.6%; growth at 10 µM [32]: 80.2%; growth at 10 µM [3]: 103%; growth at 10 µM [4]: 85.3%; growth at 10 µM [5]: 73.7%; growth at 10 µM [22]: 99%; growth at 10 µM [27]: 101%; growth at 10 µM [28]: 114%; growth at 10 µM [29]: 113%; growth at 10 µM [30]: 61.1%; growth at 10 µM [31]: 99.9% |
